According to the NIST ThermoML archive (doi:10.1021/acs.jced.5b00662):

Test: xn = mol fraction of the nth substance listed
Conditions: 100 kPa, Liquid; for speed of sound: Sing-around technique in a fixed-path interferometer; for mass density: Vibrating tube method

COCCOCCO [2-(2-methoxyethoxy)ethanol] + O
Conditions	mass density [kg/m3]	speed of sound [m/s]
283.15 K, x1 = 0.9373	–	1473.4
283.15 K, x1 = 0.9483	1029.62	1472.6
283.15 K, x1 = 0.9601	1029.5	1471.2
283.15 K, x1 = 0.9674	1029.29	1470.8
283.15 K, x1 = 0.9893	1028.84	1468.4
283.15 K, x1 = 0.9932	1028.73	1468.6
288.15 K, x1 = 0.9373	–	1455.8
288.15 K, x1 = 0.9483	1025.24	1455.1
288.15 K, x1 = 0.9601	1025.13	1453.9
288.15 K, x1 = 0.9674	1024.9	1453.3
288.15 K, x1 = 0.9893	1024.45	1451
288.15 K, x1 = 0.9932	1024.35	1451
293.15 K, x1 = 0.9373	–	1438.7
293.15 K, x1 = 0.9483	1020.87	1438
293.15 K, x1 = 0.9601	1020.74	1436.7
293.15 K, x1 = 0.9674	1020.52	1436.1
293.15 K, x1 = 0.9893	1020.06	1433.7
293.15 K, x1 = 0.9932	1019.95	1433.4
298.15 K, x1 = 0.9373	–	1421.6
298.15 K, x1 = 0.9483	1016.47	1420.8
298.15 K, x1 = 0.9601	1016.34	1419.5
298.15 K, x1 = 0.9674	1016.12	1418.9
298.15 K, x1 = 0.9893	1015.65	1416.4
298.15 K, x1 = 0.9932	1015.55	1416.1
303.15 K, x1 = 0.9373	–	1404.5
303.15 K, x1 = 0.9483	1012.06	1403.6
303.15 K, x1 = 0.9601	1011.93	1402.3
303.15 K, x1 = 0.9674	1011.71	1401.7
303.15 K, x1 = 0.9893	1011.24	1399.1
303.15 K, x1 = 0.9932	1011.12	1398.9
308.15 K, x1 = 0.9373	–	1387.3
308.15 K, x1 = 0.9483	1007.63	1386.5
308.15 K, x1 = 0.9601	1007.5	1385.1
308.15 K, x1 = 0.9674	1007.28	1384.5
308.15 K, x1 = 0.9893	1006.8	1381.9
308.15 K, x1 = 0.9932	1006.69	1381.6
313.15 K, x1 = 0.9373	–	1370.3
313.15 K, x1 = 0.9483	1003.19	1369.4
313.15 K, x1 = 0.9601	1003.06	1368.1
313.15 K, x1 = 0.9674	1002.83	1367.5
313.15 K, x1 = 0.9893	1002.35	1364.9
313.15 K, x1 = 0.9932	1002.24	1364.6
323.15 K, x1 = 0.9373	–	1336.5
323.15 K, x1 = 0.9483	994.251	1335.6
323.15 K, x1 = 0.9601	994.119	1334.3
323.15 K, x1 = 0.9674	993.893	1333.7
323.15 K, x1 = 0.9893	993.397	1330.9
323.15 K, x1 = 0.9932	993.288	1330.3
333.15 K, x1 = 0.9373	–	1302.9
333.15 K, x1 = 0.9483	985.224	1302.1
333.15 K, x1 = 0.9601	985.089	1300.7
333.15 K, x1 = 0.9674	984.87	1300.2
333.15 K, x1 = 0.9893	984.365	1297.3
333.15 K, x1 = 0.9932	984.259	1296.7
343.15 K, x1 = 0.9373	–	1269.6
343.15 K, x1 = 0.9483	976.029	1268.8
343.15 K, x1 = 0.9601	975.972	1267.4
343.15 K, x1 = 0.9674	975.754	1266.9
343.15 K, x1 = 0.9893	975.241	1263.9
343.15 K, x1 = 0.9932	975.146	1263.3

CCOCCO [2-ethoxyethan-1-ol] + O
Conditions	mass density, x1 = 0.9426 [kg/m3]	mass density, x1 = 0.949 [kg/m3]	mass density, x1 = 0.9549 [kg/m3]	mass density, x1 = 0.9567 [kg/m3]	mass density, x1 = 0.967 [kg/m3]	speed of sound, x1 = 0.9426 [m/s]	speed of sound, x1 = 0.949 [m/s]	speed of sound, x1 = 0.9549 [m/s]	speed of sound, x1 = 0.9567 [m/s]	speed of sound, x1 = 0.967 [m/s]
283.15 K	943.675	943.444	943.15	943.112	942.599	1364	1365.8	1366.2	1366.8	1361.6
288.15 K	939.208	938.975	938.68	938.638	938.12	1346.2	1347.5	1347.9	1348.4	1343.5
293.15 K	934.713	934.479	934.183	934.14	933.622	1328.3	1329.2	1329.6	1330.2	1325.6
298.15 K	930.19	929.953	929.657	929.614	929.099	1310.5	1311.1	1311.3	1311.8	1307.8
303.15 K	925.638	925.399	925.102	925.055	924.54	1292.8	1293	1293.2	1292.6	1289.8
308.15 K	921.054	920.815	920.517	920.467	919.951	1275	1275.3	1275.2	1274.3	1272
313.15 K	916.435	916.194	915.892	915.843	915.328	1257.4	1257.6	1256.6	1256.1	1254.3
323.15 K	907.087	906.839	906.54	906.493	905.969	1222.2	1222.2	1220.3	1220.2	1218.9
333.15 K	897.58	897.329	897.036	896.985	896.461	1187.1	1186.9	1185.1	1184.9	1183.7
343.15 K	887.911	887.628	887.337	887.297	886.774	1152	1151.1	1150.1	1149.8	1148.6

CCOCCOCCO [3,6-dioxa-1-octanol] + O
Conditions	mass density, x1 = 0.9674 [kg/m3]	mass density, x1 = 0.974 [kg/m3]	mass density, x1 = 0.9826 [kg/m3]	mass density, x1 = 0.9887 [kg/m3]	mass density, x1 = 0.9899 [kg/m3]	speed of sound, x1 = 0.9674 [m/s]	speed of sound, x1 = 0.974 [m/s]	speed of sound, x1 = 0.9826 [m/s]	speed of sound, x1 = 0.9887 [m/s]	speed of sound, x1 = 0.9899 [m/s]
283.15 K	997.734	997.587	997.387	997.339	997.227	1430.8	1430.3	1429.4	1429.6	1429.6
288.15 K	993.31	993.16	992.963	992.908	992.793	1412.8	1412.2	1411.4	1411.4	1411.2
293.15 K	988.877	988.725	988.528	988.475	988.357	1394.9	1394.3	1393.5	1393.6	1393.3
298.15 K	984.434	984.285	984.088	984.028	983.913	1377.3	1376.5	1375.7	1375.7	1375.4
303.15 K	979.981	979.829	979.636	979.572	979.459	1359.6	1358.8	1358	1357.9	1357.5
308.15 K	975.514	975.363	975.164	975.102	974.991	1342	1341.3	1340.5	1340.1	1340
313.15 K	971.029	970.88	970.684	970.62	970.511	1324.4	1323.9	1323.1	1322.7	1322.5
323.15 K	962.022	961.873	961.673	961.608	961.499	1289.8	1289.3	1288.5	1287.9	1287.8
333.15 K	952.945	952.794	952.591	952.534	952.422	1255.6	1255	1254.2	1253.7	1253.5
343.15 K	943.775	943.629	943.425	943.381	943.264	1221.7	1221.1	1220.3	1220	1219.7
